The target of experiment [1] is T1, Corticotropin-releasing factor receptor 2/Corticotropin-releasing factor-binding protein (Homo sapiens, UniProt P24387+Q13324).
T1 sequence (Q13324 whole entry): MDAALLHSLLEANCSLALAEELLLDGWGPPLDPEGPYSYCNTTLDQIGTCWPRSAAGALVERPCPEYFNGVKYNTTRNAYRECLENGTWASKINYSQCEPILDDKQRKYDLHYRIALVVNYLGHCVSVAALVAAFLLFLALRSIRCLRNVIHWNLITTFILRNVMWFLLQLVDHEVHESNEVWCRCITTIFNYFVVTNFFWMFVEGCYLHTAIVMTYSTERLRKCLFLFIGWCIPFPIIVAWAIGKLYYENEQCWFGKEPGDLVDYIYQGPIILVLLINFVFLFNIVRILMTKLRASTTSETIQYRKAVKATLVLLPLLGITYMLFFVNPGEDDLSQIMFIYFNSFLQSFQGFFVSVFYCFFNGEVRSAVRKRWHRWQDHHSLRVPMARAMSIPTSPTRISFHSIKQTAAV
T1 sequence (P24387 whole entry): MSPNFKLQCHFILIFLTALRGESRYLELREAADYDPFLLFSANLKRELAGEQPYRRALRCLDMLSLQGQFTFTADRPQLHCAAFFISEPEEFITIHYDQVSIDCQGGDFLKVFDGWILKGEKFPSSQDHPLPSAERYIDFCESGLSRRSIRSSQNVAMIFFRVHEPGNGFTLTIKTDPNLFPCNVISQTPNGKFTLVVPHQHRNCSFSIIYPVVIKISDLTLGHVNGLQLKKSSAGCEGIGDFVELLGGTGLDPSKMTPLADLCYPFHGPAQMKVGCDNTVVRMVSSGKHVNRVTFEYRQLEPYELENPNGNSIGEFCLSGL
The experiment in a line: activators of CRF receptor 2 with binding protein – uHTS hits, confirmation (AID 602473). The class given is functional. The note with it: read-out: EC50_Mean.

The nature of experiment [2]: blockers of CRF-binding protein–CRF-R2 complex – cell-based, uHTS hits, 384-well, dose response (AID 651639). The format is functional, Homo sapiens. Particulars: read-out: IC50_Mean.
Experiment [3] addresses T1, Corticotropin-releasing factor receptor 2/Corticotropin-releasing factor-binding protein. The experiment in a line: Dose Response confirmation of uHTS hits for small molecule antagonists of the CRF-binding protein and CRF-R2 receptor complex. The note with it: read-out: IC50_Mean. The class given is functional.
A further experiment deals with Beta-galactosidase (Escherichia coli, UniProt Q8VNN2). Briefly: Dose response counterscreen for EBI2 assay utilizing the enzyme, b-galactosidase. The format is functional. A general note: The purpose of a counterscreen is to sort out artefacts and off-target activity.
Experiment [4] is described as follows: Counterscreen for inhibitors of Trypanosoma brucei methionyl tRNA synthetase (MetRS): Luminescence-based cell-based high throughput dose response assay to identify compounds that are cytotoxic to Jurkat human T lymphocyte cells. The format is functional.
Experiment [5] deals with T2, Methionyl-tRNA synthetase, putative (Trypanosoma brucei brucei, UniProt Q38C91).
T2 sequence (Q38C91 whole entry): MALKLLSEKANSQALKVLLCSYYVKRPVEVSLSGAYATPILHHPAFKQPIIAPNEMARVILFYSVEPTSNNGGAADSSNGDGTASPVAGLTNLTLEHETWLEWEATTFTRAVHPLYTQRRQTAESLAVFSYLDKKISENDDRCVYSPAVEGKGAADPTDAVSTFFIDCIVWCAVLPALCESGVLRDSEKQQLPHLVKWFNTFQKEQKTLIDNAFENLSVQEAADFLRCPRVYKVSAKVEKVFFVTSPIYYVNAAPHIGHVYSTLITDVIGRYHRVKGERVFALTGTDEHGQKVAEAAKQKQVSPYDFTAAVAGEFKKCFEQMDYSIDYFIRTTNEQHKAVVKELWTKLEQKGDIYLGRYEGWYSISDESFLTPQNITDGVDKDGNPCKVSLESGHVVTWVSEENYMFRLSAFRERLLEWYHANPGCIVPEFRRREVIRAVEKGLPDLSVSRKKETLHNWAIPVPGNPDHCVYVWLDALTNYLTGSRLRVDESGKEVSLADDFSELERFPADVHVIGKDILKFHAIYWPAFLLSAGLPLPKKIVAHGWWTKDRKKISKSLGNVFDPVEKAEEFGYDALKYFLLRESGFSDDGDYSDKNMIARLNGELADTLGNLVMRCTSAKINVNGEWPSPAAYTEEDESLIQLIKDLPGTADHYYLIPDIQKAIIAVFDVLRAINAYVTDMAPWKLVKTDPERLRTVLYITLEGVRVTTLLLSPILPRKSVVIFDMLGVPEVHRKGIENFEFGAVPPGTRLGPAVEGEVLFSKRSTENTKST
The format is functional, Trypanosoma brucei brucei strain 927/4 GUTat10.1.

For experiment [6], the target named is T2, Methionyl-tRNA synthetase, putative. The class given is functional, Trypanosoma brucei brucei strain 927/4 GUTat10.1. The source holds these as a separate data set.
Experiment [7] addresses Photoreceptor-specific nuclear receptor (Homo sapiens, UniProt Q9Y5X4). The class given is functional, cell-based.
The nature of experiment [8]: general mammalian cell viability loss – inhibitor set, cherry-pick, set 2, cytotoxicity control for miR-122 modulator project, dose response (AID 720697). The format is functional, cell-based.
For a further experiment, the target named is Protein Wnt-3a (Mus musculus, UniProt P27467). The experiment in a line: SAR analysis of small molecule antagonists of Gli-SUFU in a Wnt3a luminescent reporter assay. The class given is functional. Background: A reporter such as luciferase makes a cellular process visible.
The target of another experiment is Steroidogenic factor 1 (Homo sapiens, UniProt Q13285). Briefly: Counterscreen for inverse agonists of the liver receptor homolog-1 (LRH-1; NR5A2): Luminescence-based cell-based high throughput dose response assay to identify inverse agonists of the Steroidogenic Factor 1 Nuclear Receptor (SF1; NR5A1). The class given is functional.
For experiment [9], the target named is Nuclear receptor subfamily 5 group A member 2 (Homo sapiens, UniProt O00482). The class given is functional, cell-based.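 Also: HEK293T cells transfected with LRH-1 and a StAR promoter luciferase reporter; potency for inhibitors that lower LRH-1 driven reporter light.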
Experiment [10] in a line: nonselective StAR promoter luciferase inhibitors – cell-based, luminescence, luciferase reporter, counter-screen for LRH-1 inverse agonist project, dose response (AID 651969). The class given is functional.
Experiment [11] is described as follows: general cell-killing toxicity readout – plate reader, dry powder samples, cytotoxicity control for PAX8 inhibitor project, dose response (AID 743021). The class given is functional, cell-based.
For experiment [12], the target named is Long-chain-fatty-acid--AMP ligase FadD28 (Mycobacterium tuberculosis, UniProt P9WQ59). The experiment in a line: Fluorescence polarization aasay to screen for inhibitors that compete for the binding of FadD28 to a bisubstrate Measured in Biochemical System Using Plate Reader - 2147-01_Inhibitor_Dose_CherryPick_Activity. The format is functional, Mycobacterium tuberculosis H37Rv. (In fluorescence polarisation assays a small probe gives low polarisation when free and higher when bound to something large.)

Another experiment addresses T3, Galanin receptor type 3 (Homo sapiens, UniProt O60755).
T3 sequence (O60755 whole entry): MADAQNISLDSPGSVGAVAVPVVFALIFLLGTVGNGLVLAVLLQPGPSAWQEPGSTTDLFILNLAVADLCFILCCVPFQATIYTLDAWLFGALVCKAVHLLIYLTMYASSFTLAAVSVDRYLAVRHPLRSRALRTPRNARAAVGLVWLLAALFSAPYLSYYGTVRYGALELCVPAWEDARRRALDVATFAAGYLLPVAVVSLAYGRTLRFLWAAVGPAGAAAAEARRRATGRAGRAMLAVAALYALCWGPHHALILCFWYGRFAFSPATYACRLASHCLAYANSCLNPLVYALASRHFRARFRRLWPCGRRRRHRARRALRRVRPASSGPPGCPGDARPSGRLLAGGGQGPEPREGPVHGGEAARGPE
Briefly: Fluorescence-based cell-based primary high throughput dose response assay to identify antagonists of the Galanin Receptor 3 (GalR3). The class given is functional.

The target in a further experiment is Major prion protein (Homo sapiens, UniProt P04156). The format is functional, cell-based.
A short description of experiment [13]: cells. The format is functional, cell-based. The note with it: HEK-CNG.
Experiment [14] can be described thus: cells.
In experiment [15] the target is T4, Fatty acid synthase (Homo sapiens, UniProt P49327). The experiment in a line: inhibition of human FAS-TE enzyme activity – biochemical, endpoint fluorescence intensity, uHTS hits, dose response (AID 624327).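 Also: fluorescence from hydrolysis of an O-methyl fluorescein acyl ester substrate by the enzyme.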 The format is functional.
Experiment [16] deals with T4, Fatty acid synthase. Briefly: inhibition of human FAS-TE enzyme activity – biochemical, kinetic fluorescence intensity, dose response (AID 624326).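 Also: rate of fluorescence rise from hydrolysis of a fluorogenic O-methyl fluorescein ester substrate.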 The format is functional.
Experiment [17] can be described thus: cells. The class given is functional, cell-based.
Experiment [18] deals with T5, Nuclear receptor subfamily 0 group B member 1 (Homo sapiens, UniProt P51843).
T5 sequence (P51843 whole entry): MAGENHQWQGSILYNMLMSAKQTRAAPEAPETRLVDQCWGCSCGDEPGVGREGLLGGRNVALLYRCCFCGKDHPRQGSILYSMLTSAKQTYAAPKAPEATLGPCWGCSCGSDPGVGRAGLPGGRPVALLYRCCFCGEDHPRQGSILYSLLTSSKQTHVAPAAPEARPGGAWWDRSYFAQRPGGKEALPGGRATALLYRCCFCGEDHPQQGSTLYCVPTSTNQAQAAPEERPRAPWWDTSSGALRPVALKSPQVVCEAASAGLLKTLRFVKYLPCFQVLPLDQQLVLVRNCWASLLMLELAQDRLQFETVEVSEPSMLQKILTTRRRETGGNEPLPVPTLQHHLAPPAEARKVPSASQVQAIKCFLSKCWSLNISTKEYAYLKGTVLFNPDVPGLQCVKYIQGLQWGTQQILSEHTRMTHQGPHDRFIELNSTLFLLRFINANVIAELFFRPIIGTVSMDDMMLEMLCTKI
The class given is functional, cell-based.

Activity calls are given as the source filed them.

`COc1ccc(C2Nc3ccccc3C(=O)N2c2ccccc2)cc1CSc1ccccn1` (configuration not stated): the EC50 in experiment [1] is > 53 µM (inactive). The values for the IC50 in experiment [2] and in experiment [3] were 17.3 µM (active) and 2.16 µM (active), respectively.
As to `Cc1ccc(NC2=CC(=O)CC(c3ccc(Cl)cc3)C2)cc1` (configuration not stated), the IC50 at Beta-galactosidase was > 80 µM (inactive).
Regarding `COc1cccc(NC(=O)CSc2nc3cc(Br)c[nH]c-3n2)c1`, the IC50 is 83.3 µM (inactive) in experiment [4], 4.03 µM (active) in experiment [5], 2 µM (active) in [6] and 0.377 µM (active) in experiment [7].
As usually defined, the AC50 is the midpoint of the concentration-response curve, whichever way the signal moves. Consider `COc1ccccc1C(=O)N1C[C@@H]2[C@H](c3ccccc31)[C@H](CO)N2CC1CCCC1`, for which the concentration at half-maximal activity (AC50) in experiment [8] was 9.28 µM (active).
For the molecule `CCC(C)Nc1cc(NC(=O)c2ccccc2)ncn1` (configuration not stated), at Protein Wnt-3a, the IC50 was > 21.8 µM (inactive).
In the case of `O=C(COc1ccc2c3c(c(=O)oc2c1)CCCC3)NCc1ccccn1`, the IC50 (at Steroidogenic factor 1; in experiment [9]; in experiment [10]) was 35.9 µM (inactive) throughout.
As for `CNC(=O)C[C@@H]1CC[C@@H]2[C@H](COc3ccc(NC(=O)Nc4ccc(Cl)cc4)cc3C(=O)N2C)O1`, in experiment [8], the half-maximal activity concentration (AC50) is 0.415 µM (active).
For `Cn1c(SCC(=O)c2ccccc2)nnc1-c1ccccn1`, the AC50 in experiment [11] is 51 µM (active).
Consider `O=c1c2c(O)cc(CSc3nnnn3-c3ccccc3)nc2[nH]n1-c1ccccc1`, for which the AC50 in experiment [12] was > 100 µM (inactive).
With `CCCc1cc(=O)oc2cc(C)cc(OCC(=O)NC3CC3)c12`, the IC50 on Steroidogenic factor 1 was 0.0932 µM (active); in experiment [9], 1.31 µM (active); in [10] it was 35.9 µM (inactive).
Turning to `Cc1cc(Br)cn2c(Cc3cccc(Cl)c3)c(-c3ccco3)nc12`, the values for the IC50 at Galanin receptor type 3, on Major prion protein and in the experiment “cells [14]” were 8.41 µM (active), 10.5 µM (inactive) and 66.2 µM (inactive), respectively. Further, in the experiment “cells [13]”, the EC50 was > 29.9 µM (inactive).
With `O=C(CN1C(=O)S/C(=C\c2ccccc2)C1=O)Nc1cc([N+](=O)[O-])ccc1O`, the AC50 in experiment [12] is 61.2 µM (active). In addition, the IC50 at Fatty acid synthase [15] is 2.94 µM (active); at Fatty acid synthase [16], 1.83 µM (active).
On to `COc1ccccc1N1CCN(C(=O)c2cc(-c3ccc(F)cc3)[nH]c2C)CC1`, for which the IC50 at Beta-galactosidase was > 80 µM (inactive).
Regarding `N#Cc1ccc(-c2nc3ccc(Br)cn3c2Cc2cccc(F)c2)cc1`, the IC50 was 2.98 µM (active) at Major prion protein and > 138 µM (inactive) in “cells [14]”.
Take `C/C(=N\NC(=O)c1ccccc1O)c1cccs1`: the IC50 (in the experiment “cells [17]”; in experiment [18]) was > 67.5 µM (inactive) each time.
Take `CC1=C(C(=O)Nc2ccc(CC(=O)NCc3ccc(OC(C)C)cc3)cc2)SCCO1`: the IC50 (in “cells [17]”; in [18]) was > 67.5 µM (inactive) in each case.
`Nc1nnc(SCc2ccc(F)cc2Cl)s1`: the EC50 in experiment [1] is > 53 µM (inactive). The IC50 was 0.941 µM (active) in experiment [2] and 14.3 µM (active) in experiment [3].
As for `CCN(CC)c1cc(NC(=O)c2ccccc2)nc(C)n1`, the IC50 at Protein Wnt-3a was > 21.8 µM (inactive).

The values above are taken from ChEMBL document CHEMBL1201862, “PubChem BioAssay data set” (2004).
